Each block holds one molecule with its values, some of them ahead of it.
Experiments:
[1] = molecular target: T1, AtLYK5 (full-length, HA-tagged) (Arabidopsis thaliana, UniProt O22808); experiment: competition of chitin magnetic bead pull-down, anti-HA immunoblot; assay type: biochemical; details: protoplasts treated with 10 µM oligomer for 15 min before harvest
T1 construct: gene LYK5; full-length cDNA, HA tag, 35S promoter, Arabidopsis Col-0 protoplasts
T1 sequence (O22808 27-664): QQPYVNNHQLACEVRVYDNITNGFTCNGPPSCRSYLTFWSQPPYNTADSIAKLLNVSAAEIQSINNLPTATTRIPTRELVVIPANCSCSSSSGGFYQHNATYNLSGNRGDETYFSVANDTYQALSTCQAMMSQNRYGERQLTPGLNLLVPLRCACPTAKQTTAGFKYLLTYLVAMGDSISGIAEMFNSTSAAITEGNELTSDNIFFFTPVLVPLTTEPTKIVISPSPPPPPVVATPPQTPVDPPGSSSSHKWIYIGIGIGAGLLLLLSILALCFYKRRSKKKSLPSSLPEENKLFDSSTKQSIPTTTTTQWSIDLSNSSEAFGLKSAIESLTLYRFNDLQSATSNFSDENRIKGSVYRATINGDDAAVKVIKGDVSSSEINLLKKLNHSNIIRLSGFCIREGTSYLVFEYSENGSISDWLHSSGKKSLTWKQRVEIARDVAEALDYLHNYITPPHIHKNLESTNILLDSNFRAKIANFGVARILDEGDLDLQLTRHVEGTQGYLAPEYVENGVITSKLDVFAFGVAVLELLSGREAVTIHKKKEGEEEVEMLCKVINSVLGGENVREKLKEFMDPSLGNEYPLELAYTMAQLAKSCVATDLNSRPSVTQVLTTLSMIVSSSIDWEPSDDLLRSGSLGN

[2] = molecular target: T2, AtLYK4 (full-length, HA-tagged) (Arabidopsis thaliana, UniProt O64825); experiment: as above; assay type: biochemical; details: protoplasts treated with 10 µM oligomer for 15 min before harvest
T2 construct: gene LYK4; full-length cDNA, HA tag, 35S promoter, Arabidopsis Col-0 protoplasts
T2 sequence (O64825 23-612): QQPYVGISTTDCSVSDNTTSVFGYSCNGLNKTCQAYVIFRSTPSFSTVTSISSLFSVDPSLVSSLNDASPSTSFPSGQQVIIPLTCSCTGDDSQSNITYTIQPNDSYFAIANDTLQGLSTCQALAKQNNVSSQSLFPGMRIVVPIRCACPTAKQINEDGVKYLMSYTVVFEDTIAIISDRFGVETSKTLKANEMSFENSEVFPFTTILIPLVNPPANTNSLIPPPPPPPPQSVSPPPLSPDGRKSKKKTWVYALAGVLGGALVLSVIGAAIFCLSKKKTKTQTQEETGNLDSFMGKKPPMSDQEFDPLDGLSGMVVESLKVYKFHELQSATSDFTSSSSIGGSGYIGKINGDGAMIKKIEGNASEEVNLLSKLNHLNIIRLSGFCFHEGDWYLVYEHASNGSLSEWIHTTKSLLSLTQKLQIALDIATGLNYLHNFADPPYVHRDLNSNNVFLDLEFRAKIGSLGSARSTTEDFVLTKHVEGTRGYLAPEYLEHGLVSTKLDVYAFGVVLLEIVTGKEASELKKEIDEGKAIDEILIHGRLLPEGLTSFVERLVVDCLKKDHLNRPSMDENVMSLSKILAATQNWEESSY

[3] = molecular target: T3, wheat germ agglutinin (WGA); experiment: isothermal titration calorimetry; assay type: binding; details: 10 mM HEPES pH 7.5, 100 mM NaCl, 25°C
T3 construct: gene WGA1

[4] = molecular target: T4, AtCERK1 (ectodomain) (Arabidopsis thaliana, UniProt A8R7E6); experiment: isothermal titration calorimetry; assay type: binding; details: 10 mM HEPES pH 7.5, 100 mM NaCl, 25°C
T4 construct: gene CERK1; ectodomain 24-231 aa, pMAL-c2G (MBP fusion), amylose resin purified, E. coli
T4 sequence (A8R7E6 24-231): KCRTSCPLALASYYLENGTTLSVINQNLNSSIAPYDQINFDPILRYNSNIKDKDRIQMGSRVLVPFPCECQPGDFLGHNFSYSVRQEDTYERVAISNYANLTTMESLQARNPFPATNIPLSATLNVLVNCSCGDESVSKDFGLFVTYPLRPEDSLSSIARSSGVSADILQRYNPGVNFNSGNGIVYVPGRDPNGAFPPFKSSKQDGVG

[5] = molecular target: T5, AtLYK5 (ectodomain) (Arabidopsis thaliana, UniProt O22808); experiment: isothermal titration calorimetry; assay type: binding; details: 10 mM HEPES pH 7.5, 100 mM NaCl, 25°C
T5 construct: gene LYK5; ectodomain 27-278 aa, E. coli BL21, pMCSG73; thrombin site before His tag, thrombin-cleaved, then Strep-Tactin purified
T5 sequence (O22808 27-278): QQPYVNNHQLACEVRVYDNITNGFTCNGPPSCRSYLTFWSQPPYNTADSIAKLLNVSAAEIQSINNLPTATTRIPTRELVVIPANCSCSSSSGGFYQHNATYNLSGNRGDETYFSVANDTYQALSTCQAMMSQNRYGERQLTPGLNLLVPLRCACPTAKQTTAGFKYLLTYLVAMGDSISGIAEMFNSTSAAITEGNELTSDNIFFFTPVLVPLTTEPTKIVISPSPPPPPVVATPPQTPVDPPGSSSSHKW

[6] = molecular target: T6, AtCERK1 kinase domain (Arabidopsis thaliana, UniProt A8R7E6); experiment: in vitro autophosphorylation, […] autoradiography; assay type: biochemical; details: 50 mM Tris pH 7.6, 50 mM KCl, 10 mM MnCl2, 10 mM MgCl2, room temperature; labelled compound
T6 construct: gene CERK1; intracellular kinase domain 255-617 aa, N-terminal GST, pGEX 5X-1, E. coli BL21 (DE3)
T6 sequence (A8R7E6 255-617): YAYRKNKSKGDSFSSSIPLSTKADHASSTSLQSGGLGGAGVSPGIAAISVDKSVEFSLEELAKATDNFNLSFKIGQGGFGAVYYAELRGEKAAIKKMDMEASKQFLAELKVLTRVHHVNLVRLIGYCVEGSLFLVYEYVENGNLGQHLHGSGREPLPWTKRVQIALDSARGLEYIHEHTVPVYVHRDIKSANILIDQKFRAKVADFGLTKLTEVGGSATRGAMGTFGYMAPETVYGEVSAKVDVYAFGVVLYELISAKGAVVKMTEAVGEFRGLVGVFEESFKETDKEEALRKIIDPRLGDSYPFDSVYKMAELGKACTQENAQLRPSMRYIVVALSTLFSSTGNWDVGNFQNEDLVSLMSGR

[7] = molecular target: the molecule itself; experiment: SDS-PAGE without reducing agent and immunoblot; crude protein of transgenic Arabidopsis expressing AtLYK5-HA in Atlyk5-2, before or 15 min after 1 µM chitooctaose, boiled 5 min without DTT; anti-HA blot

Molecule: CC(=O)N[C@H]1[C@H](O[C@H]2[C@H](O)[C@@H](NC(C)=O)[C@H](O[C@H]3[C@H](O)[C@@H](NC(C)=O)[C@H](O[C@H]4[C@H](O)[C@@H](NC(C)=O)C(O)O[C@@H]4CO)O[C@@H]3CO)O[C@@H]2CO)O[C@H](CO)[C@@H](O[C@@H]2O[C@H](CO)[C@@H](O[C@@H]3O[C@H](CO)[C@@H](O[C@@H]4O[C@H](CO)[C@@H](O)[C@H](O)[C@H]4NC(C)=O)[C@H](O)[C@H]3NC(C)=O)[C@H](O)[C@H]2NC(C)=O)[C@@H]1O (some centres unmarked) [7mer, chitoheptaose]
competition of chitin magnetic bead pull-down, anti-HA immunoblot [1]: The binding with AtLYK5 was strongly inhibited by chitoheptaose and chitooctaose

Kd [3]: 1.6 µM
Kd [4]: 455 µM
Kd [5]: 1.72 µM
Molecule: CC(=O)N[C@H]1[C@H](O[C@H]2[C@H](O)[C@@H](NC(C)=O)[C@H](O[C@H]3[C@H](O)[C@@H](NC(C)=O)[C@H](O[C@H]4[C@H](O)[C@@H](NC(C)=O)C(O)O[C@@H]4CO)O[C@@H]3CO)O[C@@H]2CO)O[C@H](CO)[C@@H](O[C@@H]2O[C@H](CO)[C@@H](O[C@@H]3O[C@H](CO)[C@@H](O[C@@H]4O[C@H](CO)[C@@H](O[C@@H]5O[C@H](CO)[C@@H](O)[C@H](O)[C@H]5NC(C)=O)[C@H](O)[C@H]4NC(C)=O)[C@H](O)[C@H]3NC(C)=O)[C@H](O)[C@H]2NC(C)=O)[C@@H]1O (some centres unmarked) [8mer, chitooctaose]
competition of chitin magnetic bead pull-down, anti-HA immunoblot [2]: the binding with AtCERK1 or AtLYK4 was only slightly reduced by the same competitors
competition of chitin magnetic bead pull-down, anti-HA immunoblot [1]: The binding with AtLYK5 was strongly inhibited by chitoheptaose and chitooctaose

Molecule: Nc1ncnc2c1ncn2[C@@H]1O[C@H](COP(=O)(O)OP(=O)(O)OP(=O)(O)O)[C@@H](O)[C@H]1O [ATP]
in vitro autophosphorylation, 32P autoradiography [6]: the AtCERK1 kinase domain showed strong kinase activity as previously reported

B1: AtLYK5-HA (full length AtLYK5 under its native promoter in Atlyk5-2 mutant plants) (receptor, Arabidopsis thaliana, UniProt O22808 27-664, looked up)
chain: T1 sequence (O22808 27-664)
notes: AtLYK5 (At2g33580), Arabidopsis thaliana; genomic fragment with the 1.8 kb promoter and the coding region up to the stop codon, in pGWB13; also called wild-type AtLYK5; source: transgenic Arabidopsis (Atlyk5-2 background, native promoter), in crude extract or lysate
stoichiometry N [7]: 2
